# ± gives the expanded uncertainty stated by the source.
# Details: Liquid
Critical pressure,Critical temperature,SMILES
7420 ± 250 kPa,304.5 ± 2.5 K,O=C=O [carbon dioxide]
3020 ± 250 kPa,507.4 ± 2.5 K,CCCCCC [hexane]
8120 ± 250 kPa,512.6 ± 2.5 K,CO [methanol]

# Reference: the NIST ThermoML archive (doi:10.1021/je034127q)
